Data taken from patent US8273754B2, “Substituted 1H-pyrazolo[3,4-D]pyrimidine-6-amine compounds” (ArQule, Inc., priority 2008, dated 2012).
Read-outs that look alike come from different tables or passages of the source.

System: cancer cells
Assay: MTS cell growth inhibition assay (72 hours)
Format: cell-based
In short: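 Cells in DMEM with 1% FBS, seeded 18 h, then compound-treated 72 h at 37 °C. Viability by MTS/PMS for 4 h, formazan absorbance at 492 nm; IC50 taken as concentration giving 50% absorbance drop, activity banded by percent inhibition.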

[1] = Homo sapiens, DLD-1, 72 h, DLD-1 cells, read-out: DLD-1 MTS 72 hr at 10 μM
[2] = Homo sapiens, KATO III, 72 h, KATO III cells, read-out: KATO III MTS 72 hr at 10 μM
[3] = Homo sapiens, MDA-MB-231, 72 h, MDA-MB-231 cells, read-out: MDA-MB-231 MTS 72 hr at 10 μM
[4] = Homo sapiens, NCI-H1299, 72 h, NCI-H1299 cells, read-out: NCI-H1299 MTS 72 hr at 10 μM
[5] = PaCa-2, 72 h, PACA-2 cells, read-out: PACA-2 MTS 72 hr at 10 μM

Structure (SMILES)	inhibition at 10 µM [1]	inhibition at 10 µM [2]	inhibition at 10 µM [3]	inhibition at 10 µM [4]	inhibition at 10 µM [5]
Nc1nc(NC2Cc3ccccc3N(S(=O)(=O)c3cc(Cl)ccc3Cl)C2)c2cn[nH]c2n1 (stereo not drawn) [Compound 32, N4-(1-(2,5-dichlorophenylsulfonyl)-1,2,3,4-tetrahydroquinolin-3-yl)-1H-pyrazolo[3,4-d]pyrimidine-4,6-diamine]	50 to 79%	> 79%	< 50%	< 50%	< 50%
COc1ccccc1Oc1cccc(S(=O)(=O)N2CC(Nc3nc(N)nc4[nH]ncc34)Cc3ccccc32)c1 (stereo not drawn) [Compound 77, N4-(1-(3-(2-methoxyphenoxy)phenylsulfonyl)-1,2,3,4-tetrahydroquinolin-3-yl)-1H-pyrazolo[3,4-d]pyrimidine-4,6-diamine]	< 50%	50 to 79%	< 50%	< 50%	< 50%
Nc1nc(NC2Cc3ccccc3N(S(=O)(=O)c3cccc(NC(=O)Nc4ccc5c(c4)CCC5)c3)C2)c2cn[nH]c2n1 (stereo not drawn) [Compound 214, 1-[3-({3-[(6-amino-1H-pyrazolo[3,4-d]pyrimidin-4-yl)amino]-3,4-dihydroquinolin-1(2H)-yl}sulfonyl)phenyl]-3-(2,3-dihydro-1H-inden-5-yl)urea]	> 79%	> 79%	> 79%	50 to 79%	> 79%
Nc1nc(NC2Cc3ccccc3N(S(=O)(=O)c3cccc(NC(=O)Nc4cc(F)cc(C(F)(F)F)c4)c3)C2)c2cn[nH]c2n1 (stereo not drawn) [Compound 217, 1-[3-({3-[(6-amino-1H-pyrazolo[3,4-d]pyrimidin-4-yl)amino]-3,4-dihydroquinolin-1(2H)-yl}sulfonyl)phenyl]-3-[3-fluoro-5-(trifluoromethyl)phenyl]urea]	> 79%	> 79%	> 79%	> 79%	> 79%
Nc1nc(NC2Cc3ccccc3N(S(=O)(=O)c3ccc(NC(=O)Nc4ccc5c(c4)CCC5)cc3)C2)c2cn[nH]c2n1 (stereo not drawn) [Compound 193, 1-[4-({3-[(6-amino-1H-pyrazolo[3,4-d]pyrimidin-4-yl)amino]-3,4-dihydroquinolin-1(2H)-yl}sulfonyl)phenyl]-3-(2,3-dihydro-1H-inden-5-yl)urea]	50 to 79%	> 79%	50 to 79%	> 79%	> 79%
Nc1nc(NC2Cc3ccccc3N(S(=O)(=O)c3ccc(Br)c(F)c3)C2)c2cn[nH]c2n1 (stereo not drawn) [Compound 62, N4-(1-(4-bromo-3-fluorophenylsulfonyl)-1,2,3,4-tetrahydroquinolin-3-yl)-1H-pyrazolo[3,4-d]pyrimidine-4,6-diamine]	< 50%	< 50%	< 50%	< 50%	< 50%
Nc1nc(NC2Cc3ccccc3N(S(=O)(=O)c3cccc(NC(=O)Nc4c(F)cccc4F)c3)C2)c2cn[nH]c2n1 (stereo not drawn) [Compound 203, 1-[3-({3-[(6-amino-1H-pyrazolo[3,4-d]pyrimidin-4-yl)amino]-3,4-dihydroquinolin-1(2H)-yl}sulfonyl)phenyl]-3-(2,6-difluorophenyl)urea]	< 50%	< 50%	< 50%	< 50%	50 to 79%
Nc1nc(NC2Cc3ccccc3N(S(=O)(=O)c3ccc(-c4ccc(F)cc4)cc3)C2)c2cn[nH]c2n1 (stereo not drawn) [Compound 65, N4-(1-(4′-fluorobiphenyl-4-ylsulfonyl)-1,2,3,4-tetrahydroquinolin-3-yl)-1H-pyrazolo[3,4-d]pyrimidine-4,6-diamine]	50 to 79%	> 79%	50 to 79%	50 to 79%	> 79%
COc1ccc(CCNC(=O)N2CC(Nc3nc(N)nc4[nH]ncc34)Cc3ccccc32)cc1OC (stereo not drawn) [Compound 109, 3-(6-amino-1H-pyrazolo[3,4-d]pyrimidin-4-ylamino)-N-(3,4-dimethoxyphenethyl)-3,4-dihydroquinoline-1(2H)-carboxamide]	< 50%	< 50%	< 50%	< 50%	< 50%
Nc1nc(NC2Cc3ccccc3N(C(=O)c3c(F)ccc(Cl)c3F)C2)c2cn[nH]c2n1 (stereo not drawn) [Compound 104, (3-(6-amino-1H-pyrazolo[3,4-d]pyrimidin-4-ylamino)-3,4-dihydroquinolin-1(2H)-yl)(3-chloro-2,6-difluorophenyl)methanone]	< 50%	< 50%	< 50%	< 50%	< 50%
COc1cc(CN2CC(Nc3nc(N)nc4[nH]ncc34)Cc3ccccc32)ccc1F (stereo not drawn) [Compound 146, N4-[1-(4-fluoro-3-methoxybenzyl)-1,2,3,4-tetrahydroquinolin-3-yl]-1H-pyrazolo[3,4-d]pyrimidine-4,6-diamine]	> 79%	> 79%	> 79%	50 to 79%	> 79%
Cc1ccc(S(=O)(=O)N2CCC(Nc3nc(N)nc4[nH]ncc34)Cc3ccccc32)cc1 (stereo not drawn) [Compound 177, N4-{1-[(4-methylphenyl)sulfonyl]-2,3,4,5-tetrahydro-1H-1-benzazepin-4-yl}-1H-pyrazolo[3,4-d]pyrimidine-4,6-diamine]	< 50%	< 50%	< 50%	< 50%	< 50%
Nc1nc(NC2Cc3ccccc3N(C(=O)COc3ccccc3)C2)c2cn[nH]c2n1 (stereo not drawn) [Compound 85, 1-(3-(6-amino-1H-pyrazolo[3,4-d]pyrimidin-4-ylamino)-3,4-dihydroquinolin-1(2H)-yl)-2-phenoxyethanone]	< 50%	< 50%	< 50%	< 50%	< 50%
Nc1nc(NC2Cc3ccccc3N(S(=O)(=O)c3cccc(NC(=O)Nc4cccc(Cl)c4F)c3)C2)c2cn[nH]c2n1 (stereo not drawn) [Compound 221, 1-[3-({3-[(6-amino-1H-pyrazolo[3,4-d]pyrimidin-4-yl)amino]-3,4-dihydroquinolin-1(2H)-yl}sulfonyl)phenyl]-3-(3-chloro-2-fluorophenyl)urea]	> 79%	> 79%	> 79%	> 79%	> 79%
Cc1ccc(S(=O)(=O)N2CC(Nc3nc(N)nc4[nH]ncc34)Cc3ccccc32)cc1 (stereo not drawn) [Compound 22, N4-(1-tosyl-1,2,3,4-tetrahydroquinolin-3-yl)-1H-pyrazolo[3,4-d]pyrimidine-4,6-diamine]	< 50%	< 50%	< 50%	< 50%	< 50%
Cc1ccccc1Oc1cccc(S(=O)(=O)N2CC(Nc3nc(N)nc4[nH]ncc34)Cc3ccccc32)c1 (stereo not drawn) [Compound 71, N4-(1-(3-(o-tolyloxy)phenylsulfonyl)-1,2,3,4-tetrahydroquinolin-3-yl)-1H-pyrazolo[3,4-d]pyrimidine-4,6-diamine]	> 79%	> 79%	> 79%	50 to 79%	> 79%
CCCCCCc1ccc(C(=O)N2CC(Nc3nc(N)nc4[nH]ncc34)Cc3ccccc32)cc1 (stereo not drawn) [Compound 88, (3-(6-amino-1H-pyrazolo[3,4-d]pyrimidin-4-ylamino)-3,4-dihydroquinolin-1(2H)-yl)(4-hexylphenyl)methanone]	50 to 79%	< 50%	< 50%	< 50%	< 50%
Nc1nc(NC2CCN(S(=O)(=O)c3cccc(F)c3)c3ccccc3C2)c2cn[nH]c2n1 (stereo not drawn) [Compound 169, N4-{1-[(3-fluorophenyl)sulfonyl]-2,3,4,5-tetrahydro-1H-1-benzazepin-4-yl}-1H-pyrazolo[3,4-d]pyrimidine-4,6-diamine]	< 50%	< 50%	< 50%	< 50%	< 50%
Nc1nc(NC2Cc3ccccc3N(C(=O)C(=O)c3c[nH]c4ccccc34)C2)c2cn[nH]c2n1 (stereo not drawn) [Compound 83, 1-(3-(6-amino-1H-pyrazolo[3,4-d]pyrimidin-4-ylamino)-3,4-dihydroquinolin-1(2H)-yl)-2-(1H-indol-3-yl)ethane-1,2-dione]	< 50%	< 50%	< 50%	< 50%	< 50%
Nc1nc(NC2CCN(S(=O)(=O)c3cccc4c(Cl)cccc34)c3ccccc3C2)c2cn[nH]c2n1 (stereo not drawn) [Compound 187, N4-{1-[(5-chloro-1-naphthyl)sulfonyl]-2,3,4,5-tetrahydro-1H-1-benzazepin-4-yl}-1H-pyrazolo[3,4-d]pyrimidine-4,6-diamine]	50 to 79%	50 to 79%	< 50%	< 50%	50 to 79%
Nc1nc(NC2CCN(S(=O)(=O)c3cc(Cl)cc(Cl)c3)c3ccccc3C2)c2cn[nH]c2n1 (stereo not drawn) [Compound 174, N4-{1-[(3,5-dichlorophenyl)sulfonyl]-2,3,4,5-tetrahydro-1H-1-benzazepin-4-yl}-1H-pyrazolo[3,4-d]pyrimidine-4,6-diamine]	50 to 79%	50 to 79%	< 50%	< 50%	50 to 79%
